*: point of attachment. Palmitoyl = CCCCCCCCCCCCCCCC(=O)*
Key:
Format in all cases: in vivo, mouse
[1] = test system: SAMP1/YitFcsJ mice (Crohn's mice); experiment: Inflammatory intestinal lesion size after direct injection into inflamed intestinal lesions; conditions: 5 weeks post-injection, pre- versus post-injection, compared to AIF-PAC and saline injected control animals
Experimental: (§1) In order to treat inflammatory lesions that have formed in the intestinal tracts, the following was performed:
Mice (10 weeks of age, female) were brought to the operating room where they were weighed, the abdomen shaved to remove hair, and given Buprenorphine (0.05 mg/kg) administered subcutaneously. At the time of surgery, anesthesia was induced with isoflurane (2%) with 02 and the mice were prepped with providine-iodine three times prior to initiating the operation. All mice received a 100 mg/kg dose of IP piperacillin/tazobactam IP followed by a midline abdominal incision (1.0-1.5 cm) made in the linea albea to gain access to the peritoneum. The intestines were then identified in the peritoneal cavity. Following intestinal exposure and identification of intestinal lesions, the anti-inflammatory peptide amphiphiles, [AIF-PA1 (treatment; 2 wt/%) or AIF-PAC (control; 2 wt/%)] or saline (control) were independently injected (20-40 μl) into multiple lesions of the several SAMP1/YitFcsJ mice. Following the surgical procedure, organs were relocated to their original anatomical positions. The abdomen was closed in 2 layers (muscle and skin) with 3-0 PDS suture. […] Tissue samples were subsequently quantified, and the results are depicted in FIGS. 1-3.

[2] = test system: SAMP1/YitFcsJ mice (Crohn's mice); experiment: Cell/marker and cytokine expression in intestinal tissue after systemic (tail vein) injection; conditions: 5 weeks, compared to AIFC-PA6/LDT and untreated control animals
Experimental: as §1
Mice (10 weeks of age, female; n=4-7 per group) were brought to the animal holding/surgical room where they were weighed. Animals were placed in a restrainer and independently injected with the aforementioned anti-inflammatory peptide amphiphiles, [AIF-PA1/LDT (treatment; 1 mM) or AIFC-PA6/LDT (control; 1 mM] or untreated/no treatment control group. Approximately 100 μl of solution was injected into the tail vein of the mice. Animals were sacrificed at the 15 weeks of age. Animals were euthanized 5 weeks post-surgery and intestinal tissue was explanted, sectioned and stained with relevant inflammation based antibodies and data was quantified. Gross tissue samples were examined for pathology. Quantified data and results are summarized in FIGS. 4-6.

[3] = test system: SAMP1/YitFcsJ mice (Crohn's mice); experiment: Cell/marker and cytokine expression in intestinal tissue after direct injection into inflamed intestinal lesions; conditions: 5 weeks post-surgery, compared to AIF-PAC and saline injected control animals
Experimental: as §1
Mice (10 weeks of age, female) were brought to the operating room where they were weighed, the abdomen shaved to remove hair, and given Buprenorphine (0.05 mg/kg) administered subcutaneously. At the time of surgery, anesthesia was induced with isoflurane (2%) with 02 and the mice were prepped with providine-iodine three times prior to initiating the operation. All mice received a 100 mg/kg dose of IP piperacillin/tazobactam IP followed by a midline abdominal incision (1.0-1.5 cm) made in the linea albea to gain access to the peritoneum. The intestines were then identified in the peritoneal cavity. Following intestinal exposure and identification of intestinal lesions, the anti-inflammatory peptide amphiphiles, [AIF-PA1 (treatment; 2 wt/%) or AIF-PAC (control; 2 wt/%)] or saline (control) were independently injected (20-40 μl) into multiple lesions of the several SAMP1/YitFcsJ mice. Following the surgical procedure, organs were relocated to their original anatomical positions. The abdomen was closed in 2 layers (muscle and skin) with 3-0 PDS suture. After recovery, they were placed back into cages with non-edible bedding and provided ad lib water and liquid diet for the first 7 post-operative days and then returned to ad lib chow. Animals were sacrificed at the 15 weeks of age. Animals were euthanized 5 weeks post-surgery and intestinal tissue was explanted, sectioned and stained with relevant inflammation based antibodies. Tissue samples were subsequently quantified, and the results are depicted in FIGS. 1-3.

For “C16-VVVAAAEEEMQMKKVLDS (Palmitoyl-VVVAAAEEEMQMKKVLDS-NH2; SMILES CCCCCCCCCCCCCCCC(=O)N[C@H](C(=O)N[C@H](C(=O)N[C@H](C(=O)N[C@@H](C)C(=O)N[C@@H](C)C(=O)N[C@@H](C)C(=O)N[C@@H](CCC(=O)O)C(=O)N[C@@H](CCC(=O)O)C(=O)N[C@@H](CCC(=O)O)C(=O)N[C@@H](CCSC)C(=O)N[C@@H](CCC(N)=O)C(=O)N[C@@H](CCSC)C(=O)N[C@@H](CCCCN)C(=O)N[C@@H](CCCCN)C(=O)N[C@H](C(=O)N[C@@H](CC(C)C)C(=O)N[C@@H](CC(=O)O)C(=O)N[C@@H](CO)C(N)=O)C(C)C)C(C)C)C(C)C)C(C)C) [AIF-PA1]”, the “change in intestinal lesion size” value [1] was “statistically significant decrease”, the IFNγ expression [2] was “statistically significant decrease” and the IL-1β expression [2] was “statistically significant decrease”. The IL-13 expression [2] was “statistically significant decrease”, the TNFα expression [2] was “statistically significant decrease” and the “CD68 (macrophages) expression” value ([3]; 2 wt/%, 20-40 μl) was “statistically significant decrease”. The MAdCAM1 expression ([3]; 2 wt/%, 20-40 μl) was “statistically significant decrease”, the “anti-inflammatory cytokine IL-10 expression” value ([3]; 2 wt/%, 20-40 μl) was “concomitant increase” and the “mast cell tryptase (mast cells) expression” value ([3]; 2 wt/%, 20-40 μl) was “statistically significant decrease”. For the same substance, the IFNγ expression [3] was “statistically significant decrease”, the IL-1β expression [3] was “statistically significant decrease” and the IL-13 expression [3] was “statistically significant decrease”. The TNFα expression [3] was “statistically significant decrease”.

Reference: patent publication US20210113650A1, “NANOMOLECULES FOR THE TREATMENT OF INFLAMMATORY BOWEL DISEASES” (Northwestern University, priority 2018, published 2021)
